Results from ChEMBL document CHEMBL4507266, “Data for DCP probe BAY-784” (2021).

Experiments:
[1] = system: eIF-2-alpha kinase GCN2 (Homo sapiens), Q9P2K8 [S808G]; conditions: Compound concentration 1000.0 nM
[2] = target: Serine/threonine-protein kinase D2 (Homo sapiens) (UniProt Q9BZL6); conditions: Compound concentration 1000.0 nM
[3] = target: Dual specificity mitogen-activated protein kinase kinase 7 (Homo sapiens) (UniProt O14733); conditions: Compound concentration 1000.0 nM
[4] = target: TRAF2 and NCK-interacting protein kinase (Homo sapiens) (UniProt Q9UKE5); conditions: Compound concentration 1000.0 nM
[5] = target: Epithelial discoidin domain-containing receptor 1 (Homo sapiens) (UniProt Q08345); conditions: Compound concentration 1000.0 nM
[6] = target: 1-phosphatidylinositol 3-phosphate 5-kinase (Homo sapiens) (UniProt Q9Y2I7); conditions: Compound concentration 1000.0 nM
[7] = target: Serine/threonine-protein kinase WNK3 (Homo sapiens) (UniProt Q9BYP7); conditions: Compound concentration 1000.0 nM
[8] = target: Phosphatidylinositol 4,5-bisphosphate 3-kinase catalytic subunit beta isoform (Homo sapiens) (UniProt P42338); conditions: Compound concentration 1000.0 nM
[9] = system: Receptor-type tyrosine-protein kinase FLT3 (Homo sapiens), P36888 [D835H]; conditions: Compound concentration 1000.0 nM
[10] = target: MAP kinase-interacting serine/threonine-protein kinase 1 (Homo sapiens) (UniProt Q9BUB5); conditions: Compound concentration 1000.0 nM
[11] = target: TGF-beta receptor type-1 (Homo sapiens) (UniProt P36897); conditions: Compound concentration 1000.0 nM
Chain of TGF-beta receptor type-1 (Homo sapiens) (P36897 whole entry): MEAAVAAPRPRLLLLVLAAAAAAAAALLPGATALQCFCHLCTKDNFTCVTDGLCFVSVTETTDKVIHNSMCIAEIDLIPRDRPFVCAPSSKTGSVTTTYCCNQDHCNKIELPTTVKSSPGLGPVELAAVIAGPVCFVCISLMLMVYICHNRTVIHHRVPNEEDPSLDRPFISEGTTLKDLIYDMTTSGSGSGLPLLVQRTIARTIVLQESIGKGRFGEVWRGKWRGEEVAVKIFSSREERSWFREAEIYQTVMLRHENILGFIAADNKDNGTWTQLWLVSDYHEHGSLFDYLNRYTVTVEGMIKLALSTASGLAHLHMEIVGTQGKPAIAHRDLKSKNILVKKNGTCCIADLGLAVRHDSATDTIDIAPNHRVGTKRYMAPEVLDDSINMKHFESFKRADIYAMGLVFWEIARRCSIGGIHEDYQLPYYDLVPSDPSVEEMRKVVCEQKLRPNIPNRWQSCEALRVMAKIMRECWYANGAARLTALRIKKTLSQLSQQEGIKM

[12] = target: TGF-beta receptor type-2 (Homo sapiens) (UniProt P37173); conditions: Compound concentration 1000.0 nM
Chain of TGF-beta receptor type-2 (Homo sapiens) (P37173 whole entry): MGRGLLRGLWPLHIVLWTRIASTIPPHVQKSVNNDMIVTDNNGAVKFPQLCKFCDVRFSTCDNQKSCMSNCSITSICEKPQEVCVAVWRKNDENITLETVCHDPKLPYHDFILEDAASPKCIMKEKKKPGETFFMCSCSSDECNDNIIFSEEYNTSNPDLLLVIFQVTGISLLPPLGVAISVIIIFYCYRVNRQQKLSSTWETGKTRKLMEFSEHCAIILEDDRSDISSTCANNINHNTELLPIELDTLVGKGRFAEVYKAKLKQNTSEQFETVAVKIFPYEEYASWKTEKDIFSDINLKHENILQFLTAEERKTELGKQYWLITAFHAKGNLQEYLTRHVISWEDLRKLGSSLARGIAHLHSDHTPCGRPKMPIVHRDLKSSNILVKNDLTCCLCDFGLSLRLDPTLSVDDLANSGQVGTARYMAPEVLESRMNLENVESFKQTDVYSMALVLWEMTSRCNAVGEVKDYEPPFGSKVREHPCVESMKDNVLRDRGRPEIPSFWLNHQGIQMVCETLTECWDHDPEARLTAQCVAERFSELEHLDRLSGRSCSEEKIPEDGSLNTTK

[13] = target: Delta-type opioid receptor (Homo sapiens) (UniProt P41143); conditions: Compound concentration 10.0 uM
Chain of Delta-type opioid receptor (Homo sapiens) (P41143 whole entry): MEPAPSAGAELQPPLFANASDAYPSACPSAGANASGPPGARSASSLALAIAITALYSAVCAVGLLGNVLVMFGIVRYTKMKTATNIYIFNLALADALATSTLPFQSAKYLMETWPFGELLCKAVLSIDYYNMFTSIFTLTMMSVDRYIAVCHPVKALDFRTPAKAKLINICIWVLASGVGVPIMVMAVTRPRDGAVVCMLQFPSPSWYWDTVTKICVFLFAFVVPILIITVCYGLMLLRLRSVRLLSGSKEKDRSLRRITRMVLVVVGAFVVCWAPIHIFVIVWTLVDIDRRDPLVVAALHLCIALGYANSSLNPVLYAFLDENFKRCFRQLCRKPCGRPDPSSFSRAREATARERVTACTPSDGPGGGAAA

[14] = target: Bone morphogenetic protein receptor type-1B (Homo sapiens) (UniProt O00238); conditions: Compound concentration 1000.0 nM
[15] = target: NUAK family SNF1-like kinase 2 (Homo sapiens) (UniProt Q9H093); conditions: Compound concentration 1000.0 nM
[16] = target: Wee1-like protein kinase 2 (Homo sapiens) (UniProt P0C1S8); conditions: Compound concentration 1000.0 nM
Chain of Wee1-like protein kinase 2 (Homo sapiens) (P0C1S8 whole entry, looked up): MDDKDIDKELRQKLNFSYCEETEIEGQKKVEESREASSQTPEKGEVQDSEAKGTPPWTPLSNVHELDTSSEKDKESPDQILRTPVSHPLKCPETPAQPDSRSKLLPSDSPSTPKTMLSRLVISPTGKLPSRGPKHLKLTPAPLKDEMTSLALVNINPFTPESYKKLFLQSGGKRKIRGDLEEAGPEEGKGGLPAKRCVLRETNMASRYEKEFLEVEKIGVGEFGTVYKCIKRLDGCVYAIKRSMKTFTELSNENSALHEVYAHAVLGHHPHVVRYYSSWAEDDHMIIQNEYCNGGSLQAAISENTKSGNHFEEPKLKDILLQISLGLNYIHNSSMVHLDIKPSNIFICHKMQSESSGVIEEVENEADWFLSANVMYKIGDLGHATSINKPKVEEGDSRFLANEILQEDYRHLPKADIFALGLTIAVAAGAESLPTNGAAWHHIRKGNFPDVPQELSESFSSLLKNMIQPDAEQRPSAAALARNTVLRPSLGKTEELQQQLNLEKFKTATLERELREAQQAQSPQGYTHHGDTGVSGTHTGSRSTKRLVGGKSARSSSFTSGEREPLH

[17] = target: Dual specificity mitogen-activated protein kinase kinase 5 (Homo sapiens) (UniProt Q13163); conditions: Compound concentration 1000.0 nM
[18] = target: Beta-adrenergic receptor kinase 1 (Homo sapiens) (UniProt P25098); conditions: Compound concentration 1000.0 nM
[19] = system: Receptor-type tyrosine-protein kinase FLT3 (Homo sapiens), P36888 [N841I]; conditions: Compound concentration 1000.0 nM
[20] = target: Phosphatidylinositol 4,5-bisphosphate 3-kinase catalytic subunit gamma isoform (Homo sapiens) (UniProt P48736); conditions: Compound concentration 1000.0 nM
Chain of Phosphatidylinositol 4,5-bisphosphate 3-kinase catalytic subunit gamma isoform (Homo sapiens) (P48736 whole entry, looked up, canonical isoform): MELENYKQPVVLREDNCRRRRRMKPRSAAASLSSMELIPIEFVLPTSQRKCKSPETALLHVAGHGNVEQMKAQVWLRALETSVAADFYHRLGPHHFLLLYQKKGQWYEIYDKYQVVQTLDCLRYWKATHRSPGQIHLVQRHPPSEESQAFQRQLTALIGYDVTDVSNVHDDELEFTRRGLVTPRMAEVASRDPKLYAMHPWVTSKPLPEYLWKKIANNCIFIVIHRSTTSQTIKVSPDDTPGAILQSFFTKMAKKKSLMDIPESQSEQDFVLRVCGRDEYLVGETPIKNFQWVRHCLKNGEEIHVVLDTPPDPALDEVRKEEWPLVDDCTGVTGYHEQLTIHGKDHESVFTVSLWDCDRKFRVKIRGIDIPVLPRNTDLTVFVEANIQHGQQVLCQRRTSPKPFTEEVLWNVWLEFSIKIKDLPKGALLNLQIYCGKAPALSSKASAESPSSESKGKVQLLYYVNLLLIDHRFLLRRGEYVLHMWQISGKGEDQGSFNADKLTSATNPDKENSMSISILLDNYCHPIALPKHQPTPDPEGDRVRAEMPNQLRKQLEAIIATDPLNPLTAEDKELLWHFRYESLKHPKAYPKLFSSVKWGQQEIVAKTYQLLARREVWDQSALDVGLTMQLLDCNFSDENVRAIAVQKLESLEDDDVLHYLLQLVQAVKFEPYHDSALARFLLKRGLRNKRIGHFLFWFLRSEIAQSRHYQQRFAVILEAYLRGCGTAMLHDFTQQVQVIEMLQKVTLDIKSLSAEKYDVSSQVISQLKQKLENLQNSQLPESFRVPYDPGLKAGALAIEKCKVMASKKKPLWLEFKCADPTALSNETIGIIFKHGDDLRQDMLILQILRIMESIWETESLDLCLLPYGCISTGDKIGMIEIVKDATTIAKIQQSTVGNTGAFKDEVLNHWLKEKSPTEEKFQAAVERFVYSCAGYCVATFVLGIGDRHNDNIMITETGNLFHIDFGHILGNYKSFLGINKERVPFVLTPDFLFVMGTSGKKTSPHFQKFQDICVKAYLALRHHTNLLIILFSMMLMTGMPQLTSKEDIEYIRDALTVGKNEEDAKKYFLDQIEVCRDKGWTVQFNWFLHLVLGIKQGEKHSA

[21] = target: Serine/threonine-protein kinase PRP4 homolog (Homo sapiens) (UniProt Q13523); conditions: Compound concentration 1000.0 nM
[22] = target: Serine/threonine-protein kinase SBK1 (Homo sapiens) (UniProt Q52WX2); conditions: Compound concentration 1000.0 nM
[23] = target: Casein kinase I isoform delta (Homo sapiens) (UniProt P48730); conditions: Compound concentration 1000.0 nM
[24] = system: Receptor-type tyrosine-protein kinase FLT3 (Homo sapiens), P36888 [D835V]; conditions: Compound concentration 1000.0 nM
[25] = target: Glycogen synthase kinase-3 alpha (Homo sapiens) (UniProt P49840); conditions: Compound concentration 1000.0 nM
[26] = target: Macrophage colony-stimulating factor 1 receptor (Homo sapiens) (UniProt P07333); conditions: Compound concentration 1000.0 nM
[27] = target: Ribosomal protein S6 kinase alpha-5 (Homo sapiens) (UniProt O75582); conditions: Compound concentration 1000.0 nM
[28] = target: Cyclin-dependent kinase-like 1 (Homo sapiens) (UniProt Q00532); conditions: Compound concentration 1000.0 nM
[29] = target: Aurora kinase C (Homo sapiens) (UniProt Q9UQB9); conditions: Compound concentration 1000.0 nM
Chain of Aurora kinase C (Homo sapiens) (Q9UQB9 whole entry): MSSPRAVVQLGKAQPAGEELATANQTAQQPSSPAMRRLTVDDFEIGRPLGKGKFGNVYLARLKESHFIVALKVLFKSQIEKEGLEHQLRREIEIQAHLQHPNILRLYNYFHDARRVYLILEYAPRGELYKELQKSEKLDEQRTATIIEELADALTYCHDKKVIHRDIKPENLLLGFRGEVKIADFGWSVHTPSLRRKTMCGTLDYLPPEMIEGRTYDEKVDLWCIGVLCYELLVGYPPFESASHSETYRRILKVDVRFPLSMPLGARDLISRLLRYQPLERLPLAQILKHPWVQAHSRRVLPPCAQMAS

[30] = target: Serine/threonine-protein kinase DCLK2 (Homo sapiens) (UniProt Q8N568); conditions: Compound concentration 1000.0 nM
[31] = target: Serine/threonine-protein kinase PLK2 (Homo sapiens) (UniProt Q9NYY3); conditions: Compound concentration 1000.0 nM
[32] = target: Serine/threonine-protein kinase DCLK1 (Homo sapiens) (UniProt O15075); conditions: Compound concentration 1000.0 nM
[33] = target: Cyclin-dependent kinase 17 (Homo sapiens) (UniProt Q00537); conditions: Compound concentration 1000.0 nM
[34] = system: Tyrosine-protein kinase ABL1 (Homo sapiens), P00519 [Q252H]; conditions: Compound concentration 1000.0 nM
[35] = system: Hepatocyte growth factor receptor (Homo sapiens), P08581 [M1250T]; conditions: Compound concentration 1000.0 nM
[36] = target: Tyrosine-protein kinase Lck (Homo sapiens) (UniProt P06239); conditions: Compound concentration 1000.0 nM
Chain of Tyrosine-protein kinase Lck (Homo sapiens) (P06239 2-509 limits assumed): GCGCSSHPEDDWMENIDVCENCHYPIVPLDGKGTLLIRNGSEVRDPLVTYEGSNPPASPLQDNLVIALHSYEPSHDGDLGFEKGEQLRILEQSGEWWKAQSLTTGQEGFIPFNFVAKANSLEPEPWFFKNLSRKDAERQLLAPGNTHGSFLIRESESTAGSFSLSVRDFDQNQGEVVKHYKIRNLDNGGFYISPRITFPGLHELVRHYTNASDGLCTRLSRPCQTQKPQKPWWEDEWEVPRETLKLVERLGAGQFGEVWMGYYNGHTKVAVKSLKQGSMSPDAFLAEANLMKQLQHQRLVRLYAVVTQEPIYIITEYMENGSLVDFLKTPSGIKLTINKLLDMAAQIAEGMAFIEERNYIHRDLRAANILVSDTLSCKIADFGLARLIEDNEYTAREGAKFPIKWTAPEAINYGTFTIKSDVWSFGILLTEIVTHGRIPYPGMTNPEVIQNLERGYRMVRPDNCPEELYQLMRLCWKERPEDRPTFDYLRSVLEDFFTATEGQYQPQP

[37] = system: Tyrosine-protein kinase ABL1 (Homo sapiens), P00519 [F317L]; conditions: Compound concentration 1000.0 nM
[38] = target: Leukocyte tyrosine kinase receptor (Homo sapiens) (UniProt P29376); conditions: Compound concentration 1000.0 nM
Chain of Leukocyte tyrosine kinase receptor (Homo sapiens) (P29376 whole entry): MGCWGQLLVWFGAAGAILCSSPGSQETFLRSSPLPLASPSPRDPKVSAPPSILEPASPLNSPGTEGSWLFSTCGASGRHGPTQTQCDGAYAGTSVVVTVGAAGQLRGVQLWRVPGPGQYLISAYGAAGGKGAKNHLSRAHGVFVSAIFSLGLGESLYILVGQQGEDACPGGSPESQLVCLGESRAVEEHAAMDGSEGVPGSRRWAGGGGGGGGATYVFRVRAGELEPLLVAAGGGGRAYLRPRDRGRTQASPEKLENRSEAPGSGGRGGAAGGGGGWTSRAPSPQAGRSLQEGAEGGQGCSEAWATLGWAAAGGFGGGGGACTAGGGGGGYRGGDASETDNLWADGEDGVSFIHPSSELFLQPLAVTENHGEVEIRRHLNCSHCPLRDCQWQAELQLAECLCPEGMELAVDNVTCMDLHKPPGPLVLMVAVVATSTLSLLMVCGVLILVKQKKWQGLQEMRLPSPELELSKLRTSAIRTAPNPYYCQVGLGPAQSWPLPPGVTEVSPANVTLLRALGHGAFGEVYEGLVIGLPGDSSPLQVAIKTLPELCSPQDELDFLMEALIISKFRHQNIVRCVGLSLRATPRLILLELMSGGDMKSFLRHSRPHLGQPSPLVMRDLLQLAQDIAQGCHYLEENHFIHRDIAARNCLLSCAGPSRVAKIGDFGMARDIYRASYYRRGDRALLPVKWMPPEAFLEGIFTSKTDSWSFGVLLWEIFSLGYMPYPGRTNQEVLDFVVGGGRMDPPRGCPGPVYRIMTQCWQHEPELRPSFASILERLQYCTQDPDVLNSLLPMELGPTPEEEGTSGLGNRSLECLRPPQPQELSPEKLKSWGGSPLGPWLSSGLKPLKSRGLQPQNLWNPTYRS

[39] = target: Mitogen-activated protein kinase kinase kinase 6 (Homo sapiens) (UniProt O95382); conditions: Compound concentration 1000.0 nM

O=C(NCc1ncc(C(F)(F)F)cc1Cl)c1ccc2c(c1)C1(CCS(=O)(=O)CC1)[C@H](C1CC1)N2S(=O)(=O)c1ccc(F)cc1 [BAY-784]
inactive: residual activity [1] 88% | residual activity [2] 98% | residual activity [3] 72% | residual activity [4] 100% | residual activity [5] 100% | residual activity [6] 84% | residual activity [7] 86% | residual activity [8] 68% | residual activity [9] 92% | residual activity [10] 74% | residual activity [11] 100% | residual activity [12] 100% | inhibition [13] -0.34% | residual activity [14] 93% | residual activity [15] 81% | residual activity [16] 100% | residual activity [17] 69% | residual activity [18] 56% | residual activity [19] 58% | residual activity [20] 82% | residual activity [21] 100% | residual activity [22] 97% | residual activity [23] 85% | residual activity [24] 70% | residual activity [25] 100% | residual activity [26] 100% | residual activity [27] 95% | residual activity [28] 90% | residual activity [29] 82% | residual activity [30] 100% | residual activity [31] 76% | residual activity [32] 83% | residual activity [33] 100% | residual activity [34] 70% | residual activity [35] 89% | residual activity [36] 100% | residual activity [37] 88% | residual activity [38] 87% | residual activity [39] 83%

O=C(NCc1ncc(C(F)(F)F)cc1Cl)c1ccc2c(c1)C1(CCS(=O)(=O)CC1)[C@@H](C1CC1)N2S(=O)(=O)c1ccc(F)cc1 [BAY-786]
inactive: residual activity [1] 100% | residual activity [2] 90% | residual activity [3] 79% | residual activity [4] 71% | residual activity [5] 100% | residual activity [6] 73% | residual activity [7] 70% | residual activity [8] 75% | residual activity [9] 100% | residual activity [10] 78% | residual activity [11] 84% | residual activity [12] 71% | inhibition [13] -2.65% | residual activity [14] 85% | residual activity [15] 75% | residual activity [16] 100% | residual activity [17] 90% | residual activity [18] 80% | residual activity [19] 78% | residual activity [20] 95% | residual activity [21] 84% | residual activity [22] 92% | residual activity [23] 93% | residual activity [24] 76% | residual activity [25] 100% | residual activity [26] 87% | residual activity [27] 100% | residual activity [28] 100% | residual activity [29] 80% | residual activity [30] 100% | residual activity [31] 74% | residual activity [32] 74% | residual activity [33] 99% | residual activity [34] 87% | residual activity [35] 100% | residual activity [36] 100% | residual activity [37] 78% | residual activity [38] 81% | residual activity [39] 68%
